Laboratory results as given in patent US20040116420A1 (priority 2001, published 2004).

Key:
[1] = system: Vero cells; assay: Cytotoxicity, Vero cells, Alamar Blue; assay type: cell-based; conditions: 25 μM, 20 hours
In short: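 Overnight-seeded Vero cells were exposed to 25 μM compound in 2% FBS-DMEM for 20 h at 37 °C, 5% CO2. Alamar Blue was then added for about 6 h. The absorbance ratio relative to compound-free control gave the living-cell ratio.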

[2] = system: HSV1 DNA polymerase variant; assay: Antiviral activity 2, plaque formation in HEL cells; assay type: cell-based, HSV-1; conditions: Human alphaherpesvirus 1, HEL, 72 h, read-out: Antiviral activity: IC50, HSV1 DNA polymerase variant
Protocol: (§1) An Assay Method for Antiviral Activity 2
(§2) The HEL cells were sowed on a 48-well plate and then cultured overnight. The culture supernatant was removed, and 100 μl of 2% FBS-DMEM containing 40 Plaque-forming units of HSV-1, HSV-2, VZV, or CMV was added. A viral solution Was removed 1 hour later, and 500 μl of 2% FBS-DMEM containing 0.5% methylcellulose comprising 50, 25, 12.5, 6.3, 3.2, or 1.6 μM of the test compound was added. In this case, a substance to which 2% FBS-DMEM containing 0.5% methylcellulose not comprising any test compound had been added was designated as a control. In the case of HSV-1, HSV-2, or VZV, incubation was carried out in the presence of 5% CO2 at 37° C. for 3 days. In the case of CMV, incubation was carried out under the same conditions for 14 days. After they were immobilized on formalin and stained with bromophenol blue, the amount of plaque formed was counted, and the ratio of plaque formation of the drug-containing reaction system relative to the control was determined. The concentration of the drug with which the ratio of plaque formation reaches 50% was calculated and determined to be IC50. Concerning HSV-1, an aciclovir-resistant thymidine kinase variant and a DNA polymerase variant were examined in addition to a general aciclovir-sensitive strain.

[3] = system: HSV1 Sensitive strain; assay: as above; assay type: cell-based, HSV-1; conditions: Human alphaherpesvirus 1, 72 h, 3 days
Protocol: as §1, §2

[4] = system: HSV1 Thimidine kinase variant; assay: as above; assay type: cell-based, HSV-1; conditions: Human alphaherpesvirus 1, HEL, 72 h, read-out: Antiviral activity: IC50, HSV1 Thimidine kinase variant
Protocol: as §1, §2

[5] = system: HSV-1; assay: Inhibition of virus multiplication through combined use, plaque formation in Vero cells; assay type: cell-based; conditions: 3 days
Protocol: Activity of Inhibiting Virus Multiplication Through Combined use
The Vero cells were sowed on a 48-well plate and then cultured overnight. The culture supernatant was removed, and 100 μl of 2% FBS-DMEM containing 40 Plaque-forming units of HSV-1 was added. A viral solution was removed 1 hour later, And 500 μl of 2% FBS-DMEM containing 0.5% methylcellulose comprising the test Compound was added. In this case, a substance to which 2% FBS-DMEM containing 0.5% methylcellulose not comprising any test compound had been added was designated as a control. They were incubated in the presence of 5% CO2 at 37° C. for 3 days. After they were immobilized on formalin and stained with bromophenol blue, the Amount of plaque formed was counted, and the ratio of plaque formation of the drug-containing reaction system relative to the control was determined. Examination was carried out using the Compound No.18 in combination with aciclovir, the Compound No. 18 in combination with penciclovir, and the Compound No.18 in combination with ganciclovir. In this examination, 25, 12.5, 6.3, 3.2, 1.6, or 0 μM of the Compound No. 18 was used, and 3.2, 1.6, 0.8, 0.4, 0.2, or 0 μM of aciclovir, penciclovir, or ganciclovir was used.

In the case of `Cc1c(NC(=O)OC(C)(C)C)ccc2nc(NC(C)(C)C(=O)N(C)CCc3ccccn3)oc(=O)c12` [Compound No.18, (5-methyl-2-{1-methyl-1-[methyl-(2-pyridin-2-yl-ethyl)-carbamoyl]-ethylamino}-4-oxo-4H-benzo[d][1,3]oxazin-6-yl)-carbamic Acid Tert-Butyl Ester], the “Cell viability (% of control)” value [1] is reported as 101.0%, the IC50 [2] is reported as 17.1 µM and the IC50 [3] is reported as 10 µM. For the same compound, the IC50 [4] was 22.5 µM, the “Inhibition of multiplication of HSV-1 through combined use” value (from here on “Inhibition”) ([5]; in combination with aciclovir) was “synergistically inhibited” and the “Inhibition” value ([5]; in combination with ganciclovir) was “synergistically inhibited”. The “Inhibition” value ([5]; in combination with penciclovir) was “synergistically inhibited”.
